The values that follow come from patent US8921351B2, “Liquid crystalline phytosterol-glycerine complex for enhanced bioavailability and water dispersal” (Brandeis University, priority 2012, dated 2014).

A short description of series [1]: Saturation uptake of glycerine into melted non-esterified phytosterols. Format: physicochemical. As for the experimental part: An experiment was conducted to determine the “saturation uptake” level during the chemical interaction between phytosterols and glycerine, The saturation uptake level can be either an adsorption phenomenon or a solubility phenomenon. First, the saturation level of glycerine uptake into non-esterified phytosterols was determined Mixed phytosterols that had been purified from soybean oil, and containing principally beta-sitosterol, campesterol and stigmasterol (CoroWise® FG-50), were heated, […] Increasing levels of glycerine (approximately 5, 10, 20 and 25 parts by weight) could be adsorbed or dissolved in 100 parts by weight of heated and melted free phytosterols. The evidence for adsorption (or solubility) was that a single melted phase of liquid was visible in heated glass test tubes containing these mixtures, whereas when larger amounts of glycerine were added, the glycerine formed a separate clear phase beneath the melted phytosterols. Upon cooling and solidification of the phytosterol samples containing between approximately 5 and 25 parts by weight of glycerine, the resulting solids were dry to the touch with no apparent free glycerine liquid. […]

For series [2] the following is noted: cited from earlier work.
Series [3] is described as follows: Mutual solubility of phytosterols with glycerine or propylene glycol at 150° C. In kind it is physicochemical. An excerpt: It was discovered that a substantial amount of glycerine can be combined with phytosterol to form a complex (up to approximately 20% glycerine based on the weight of phytosterol). This was surprising given that glycerine is a low molecular weight hydrophilic substance whereas phytosterols (e.g., beta-sitosterol, campesterol and stigmasterol) are highly hydrophobic substances. […] The question arose, why can 20% glycerine dissolve into melted phytosterols when a small amount of phytosterol will not dissolve into glycerine. […] For example, equal weight percentages of these ingredients dissolve easily in one another.

Regarding `OCC(O)CO` [glycerine], in series [1], the “saturation level of glycerine relative to phytosterols” value is listed as roughly 20 % by weight. In addition, the “solubility limit (saturation level) of glycerine in melted phytosterols” value in series [1] (phytosterols melted at approximately 135° C.) was “about 25 g per 100 g phytosterols”. `CCCCCO` [n-amyl alcohol]: the “solubility limit in water” value in series [2] is listed as 2.7 g per 100 g water.

For the compound `CC(O)CO` (stereo not shown) [propylene glycol], in series [3], the “miscibility of propylene glycol and phytosterols” value is listed as “substantially miscible”.
